Assays:
Experiment in all cases: relative viability (nuclei count vs DMSO), 5 days (fraction); higher = more cells survive
RO-3306 + Lapatinib = compound: C1=CC2=C(C=CC(=C2)C=C3C(=O)NC(=NCC4=CC=CS4)S3)N=C1 [RO-3306] + CS(=O)(=O)CCNCc1ccc(-c2ccc3ncnc(Nc4ccc(OCc5cccc(F)c5)c(Cl)c4)c3c2)o1 [Lapatinib] (partner 2 µM)
Summary of the method: (§1)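 The day after seeding in 1536-well plates, lung cancer cell lines were treated by pin tool with a single drug, or with a fixed anchor-drug dose together with five library-drug doses (not always all listed) in √10 steps. After 5 days, a combined fix-and-stain solution (final 0.05% Triton X-100, 1% formaldehyde, 1 ug/ml Hoechst) was added. Nuclei counted on 4× images gave relative viability as treated counts over vehicle counts, reported as the median of duplicate plates.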

RO-3306 + Pemetrexed = compound: C1=CC2=C(C=CC(=C2)C=C3C(=O)NC(=NCC4=CC=CS4)S3)N=C1 [RO-3306] + Nc1nc2[nH]cc(CCc3ccc(C(=O)N[C@@H](CCC(=O)O)C(=O)O)cc3)c2c(=O)[nH]1 [Pemetrexed] (partner 0.2 µM)
Summary of the method: as §1

RO-3306 + Trametinib = compound: C1=CC2=C(C=CC(=C2)C=C3C(=O)NC(=NCC4=CC=CS4)S3)N=C1 [RO-3306] + CC(=O)Nc1cccc(-n2c(=O)n(C3CC3)c(=O)c3c(Nc4ccc(I)cc4F)n(C)c(=O)c(C)c32)c1 [Trametinib] (partner 0.02 µM)
Summary of the method: as §1

[1] = compound: O=S(=O)(c1ccccc1)N(CC(F)(F)F)c1ccc(C(O)(C(F)(F)F)C(F)(F)F)cc1 + COc1cccc2cc(-c3nc([C@H]4CC[C@H](C(=O)O)CC4)n4ncnc(N)c34)[nH]c12 [OSI-027] (partner 0.5 µM)
Summary of the method: as §1

In the case of UMC-11, the relative viability (RO-3306 + Lapatinib; first compound 0.01 µM) is reported as 1.06, the relative viability (RO-3306 + Lapatinib; first compound 0.03162 µM) is reported as 0.676 and the relative viability (RO-3306 + Lapatinib; first compound 0.1 µM) is reported as 0.829. The relative viability (RO-3306 + Lapatinib; first compound 0.3162 µM) was 0.971, the relative viability (RO-3306 + Lapatinib; first compound 1 µM) was 0.671 and the relative viability (RO-3306 + Pemetrexed; first compound 0.01 µM) was 0.906. For the same cell line, the relative viability (RO-3306 + Pemetrexed; first compound 0.03162 µM) was 0.746, the relative viability (RO-3306 + Pemetrexed; first compound 0.1 µM) was 0.816 and the relative viability (RO-3306 + Pemetrexed; first compound 0.3162 µM) was 0.816. The relative viability (RO-3306 + Pemetrexed; first compound 1 µM) was 0.791, the relative viability (RO-3306 + Trametinib; first compound 0.01 µM) was 0.734 and the relative viability (RO-3306 + Trametinib; first compound 0.03162 µM) was 0.679. It also gave a relative viability (RO-3306 + Trametinib; first compound 0.1 µM) of 0.641, a relative viability (RO-3306 + Trametinib; first compound 0.3162 µM) of 0.793 and a relative viability (RO-3306 + Trametinib; first compound 1 µM) of 0.531. The relative viability ([1]; first compound 0.8 µM) was 0.491, the relative viability ([1]; first compound 2.53 µM) was 0.444 and the relative viability ([1]; first compound 8 µM) was 0.526.

Source: the supplement of paper PMC10307832
